We go through one compound from patent US20170144985A1, “DIAMINOTRIAZINE COMPOUND USEFUL AS HERBICIDE” (BASF SE, priority 2014, published 2017).

Common to all, as to test: greenhouse pre-emergence herbicidal test
For one experiment, the system named is APESV. It is filed as in vivo, Apera spica-venti. Conditions: application rate 0.5 kg/ha, scale from 0 to 100, APESV. The source says: (§1) The seeds of the test plants were sown separately for each species. For the pre-emergence treatment, the active ingredients, which had been suspended or emulsified in water, were applied directly after sowing by means of finely distributing nozzles. The containers were irrigated gently to promote germination and growth and subsequently covered with transparent plastic hoods until the plants had rooted. This cover caused uniform germination of the test plants, unless this had been impaired by the active ingredients. Depending on the species, the plants were kept at 10-25° C. or 20-35° C., respectively. The test period extended over 2 to 4 weeks. During this time, the plants were tended, and their response to the individual treatments was evaluated. Evaluation was carried out using a scale from 0 to 100. 100 means no emergence of the plants, or complete destruction of at least the aerial moieties, and 0 means no damage, or normal course of growth. A moderate herbicidal activity is given at values of at least 60, a good herbicidal activity is given at values of at least 70, and a very good herbicidal activity is given at values of at least 85. The plants used in the greenhouse experiments were of the following species: [table]

For a further experiment, the system named is AMARE. It is filed as in vivo, Amaranthus retroflexus. Conditions: application rate 0.5 kg/ha, scale from 0 to 100, AMARE.
Excerpt: as §1

The subject of the next experiment is ALOMY. It is filed as in vivo, Alopecurus myosuroides. The conditions noted are these: application rate 0.5 kg/ha, scale from 0 to 100, ALOMY.
Excerpt: as §1

Regarding `Nc1nc(Nc2c(F)c(F)nc(F)c2F)nc(N2CCCC2)n1` [Example 1, 6-pyrrolidin-1-yl-N4-(2,3,5,6-tetrafluoro-4-pyridyl)-1,3,5-triazine-2,4-diamine], the herbicidal activity entry with APESV, in the experiment with AMARE and with ALOMY was “very good (a very good herbicidal activity is given at values of at least 85)” in each case.
